Among the data in US10160747B2, “Compounds and methods for kinase modulation, and indications therefor” (Plexxikon Inc., priority 2016, dated 2018) are IC50 values, retold here.

The target of this assay is T1, FLT3-D835Y (Homo sapiens, UniProt P36888, D835Y).
T1 construct: purchased Invitrogen PV3967
T1 sequence (P36888 27-993 D835Y): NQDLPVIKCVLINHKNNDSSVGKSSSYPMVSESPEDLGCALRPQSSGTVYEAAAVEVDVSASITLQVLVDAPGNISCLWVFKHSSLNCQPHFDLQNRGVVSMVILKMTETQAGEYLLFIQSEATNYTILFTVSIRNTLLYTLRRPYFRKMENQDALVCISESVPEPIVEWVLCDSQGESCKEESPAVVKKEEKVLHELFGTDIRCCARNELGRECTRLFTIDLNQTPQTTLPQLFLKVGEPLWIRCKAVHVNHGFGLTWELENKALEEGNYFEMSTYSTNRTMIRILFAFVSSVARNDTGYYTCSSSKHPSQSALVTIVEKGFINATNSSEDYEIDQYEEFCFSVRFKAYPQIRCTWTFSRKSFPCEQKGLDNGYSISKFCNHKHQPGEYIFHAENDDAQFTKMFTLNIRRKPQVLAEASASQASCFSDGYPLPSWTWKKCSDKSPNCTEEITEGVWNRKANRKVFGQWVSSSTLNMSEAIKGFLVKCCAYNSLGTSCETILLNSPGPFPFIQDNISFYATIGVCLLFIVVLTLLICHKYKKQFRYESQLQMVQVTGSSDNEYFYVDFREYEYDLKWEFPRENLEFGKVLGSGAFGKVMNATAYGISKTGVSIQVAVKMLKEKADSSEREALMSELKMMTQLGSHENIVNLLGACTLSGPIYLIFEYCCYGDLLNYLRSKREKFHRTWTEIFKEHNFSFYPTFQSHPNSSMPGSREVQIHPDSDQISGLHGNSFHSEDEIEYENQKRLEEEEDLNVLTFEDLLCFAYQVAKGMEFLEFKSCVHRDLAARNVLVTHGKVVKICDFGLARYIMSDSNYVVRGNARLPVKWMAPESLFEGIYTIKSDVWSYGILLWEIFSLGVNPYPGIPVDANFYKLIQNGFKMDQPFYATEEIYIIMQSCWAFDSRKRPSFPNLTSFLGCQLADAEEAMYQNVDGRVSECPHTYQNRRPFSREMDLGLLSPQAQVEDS
In words: FLT3-D835Y recombinant enzyme kinase assay (AlphaScreen). In kind it is biochemical. The note with it: 8 pt, GMean. Summed up: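 IC50 values are derived from reduced AlphaScreen signal as inhibitors block tyrosine phosphorylation of a biotinylated poly(Glu4-Tyr) peptide (30 nM) by recombinant kinase. FLT3 variants are run at 10 μM ATP, c-KIT at 100 μM.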
In general terms: Bead proximity is the source of the signal in Alpha formats.

For orientation: IC50 means the point on the concentration scale where inhibition reaches its midpoint.

Regarding `Cc1ncc(NC(=O)Cc2ccc(-c3cnc4c(c3)C3(CC3)C(=O)N4)cc2F)cc1C(F)(F)F` [Compound P-0057, 2-[2-fluoro-4-(2-oxospiro[1H-pyrrolo[2,3-b]pyridine-3,1′-cyclopropane]-5-yl)phenyl]-N-[6-methyl-5-(trifluoromethyl)-3-pyridyl]acetamide], the IC50 fell in the range of 0.0001 to 10 µM.

With `CCC(=O)c1c[nH]c2ncc(-c3ccc(CC(=O)Nc4cncc(C(F)(F)F)c4)c(F)c3)cc12` [Compound P-0068, 2-[2-fluoro-4-(3-propanoyl-1H-pyrrolo[2,3-b]pyridin-5-yl)phenyl]-N-[5-(trifluoromethyl)-3-pyridyl]acetamide], the IC50 fell in the range of 0.0001 to 10 µM. In the case of `O=C(Cc1ccc(-c2cnc3[nH]cc(F)c3c2)cc1F)Nc1cc(Cl)c(C2CC2)cn1` [Compound P-0044, N-(4-chloro-5-cyclopropyl-2-pyridyl)-2-[2-fluoro-4-(3-fluoro-1H-pyrrolo[2,3-b]pyridin-5-yl)phenyl]acetamide] it was 0.0001 to 10 µM; in that of `Cc1ncc(NC(=O)Cc2ccc(-c3cnc4[nH]cc(Cl)c4n3)cc2)cc1C(F)(F)F` [Compound P-0079, 2-(4-(7-chloro-5H-pyrrolo[2,3-b]pyrazin-2-yl)phenyl)-N-(6-methyl-5-(trifluoromethyl)pyridin-3-yl)acetamide], 0.0001 to 10 µM; in that of `O=C(Cc1ccc(-c2cnc3[nH]nc(C4CC4)c3c2)cc1)Nc1cncc(C(F)(F)F)c1` [Compound P-0073, 2-[4-(3-cyclopropyl-1H-pyrazolo[3,4-b]pyridin-5-yl)phenyl]-N-[5-(trifluoromethyl)-3-pyridyl]acetamide], 0.0001 to 10 µM. For the compound `O=C(Cc1ccc(-c2cnc3[nH]cc(Cl)c3n2)cc1F)Nc1cnc(Cl)c(C(F)(F)F)c1` [Compound P-0060, 2-[4-(7-chloro-5H-pyrrolo[2,3-b]pyrazin-2-yl)-2-fluoro-phenyl]-N-[6-chloro-5-(trifluoromethyl)-3-pyridyl]acetamide], the 50% inhibitory concentration (IC50) fell in the range of 0.0001 to 10 µM. In the case of `O=C(Cc1ccc(-c2cnc3[nH]cc(C(=O)C4CC4)c3c2)cc1F)Nc1ccnc(C(F)(F)F)c1` [Compound P-0032, 2-[4-[3-(cyclopropanecarbonyl)-1H-pyrrolo[2,3-b]pyridin-5-yl]-2-fluoro-phenyl]-N-[2-(trifluoromethyl)-4-pyridyl]acetamide] it was 0.0001 to 10 µM; in that of `O=C(Cc1ccc(-c2cnc(Nc3cnn4ccccc34)nc2)c(F)c1)Nc1cncc(C(F)(F)F)c1` [Compound P-0071, 2-[3-fluoro-4-[2-(pyrazolo[1,5-a]pyridin-3-ylamino)pyrimidin-5-yl]phenyl]-N-[5-(trifluoromethyl)-3-pyridyl]acetamide], 0.0001 to 10 µM; in that of `O=C(Cc1ccc(-c2cnc(Nc3cnn4ccccc34)nc2)cc1F)Nc1cncc(C(F)(F)F)c1` [Compound P-0058, 2-[2-fluoro-4-[2-(pyrazolo[1,5-a]pyridin-3-ylamino)pyrimidin-5-yl]phenyl]-N-[5-(trifluoromethyl)-3-pyridyl]acetamide], 0.0001 to 10 µM. In the case of `CC(=O)c1c[nH]c2ncc(-c3ccc(CC(=O)Nc4ccnc(C(F)(F)F)c4)c(F)c3)cc12` [Compound P-0031, 2-(4-(3-acetyl-1H-pyrrolo[2,3-b]pyridin-5-yl)-2-fluorophenyl)-N-(2-(trifluoromethyl)pyridin-4-yl)acetamide] it was 0.0001 to 10 µM.

For `COc1ncc(NC(=O)Cc2ccc(-c3cnc4[nH]cc(Cl)c4n3)cc2F)cc1C(F)(F)F` [Compound P-0047, 2-[4-(7-chloro-5H-pyrrolo[2,3-b]pyrazin-2-yl)-2-fluoro-phenyl]-N-[6-methoxy-5-(trifluoromethyl)-3-pyridyl]acetamide], the IC50 fell in the range of 0.0001 to 10 µM. With `O=C(Cc1cc(F)c(-c2cnc(Nc3cnn4ccccc34)nc2)cc1F)Nc1cncc(C(F)(F)F)c1` [Compound P-0075, 2-[2,5-difluoro-4-[2-(pyrazolo[1,5-a]pyridin-3-ylamino)pyrimidin-5-yl]phenyl]-N-[5-(trifluoromethyl)-3-pyridyl]acetamide], the IC50 fell in the range of 0.0001 to 10 µM.

For `O=C(Cc1ccc(-c2cnc(Nc3cnn4ccccc34)nc2)cc1)Nc1cncc(C(F)(F)F)c1` [Compound P-0074, 2-[4-[2-(pyrazolo[1,5-a]pyridin-3-ylamino)pyrimidin-5-yl]phenyl]-N-[5-(trifluoromethyl)-3-pyridyl]acetamide], the IC50 is 0.0001 to 10 µM.

`CC(=O)c1c[nH]c2ncc(-c3ccc(CC(=O)Nc4cncc(C(F)(F)F)c4)c(F)c3)cc12` [Compound P-0055, 2-[4-(3-acetyl-1H-pyrrolo[2,3-b]pyridin-5-yl)-2-fluoro-phenyl]-N-[5-(trifluoromethyl)-3-pyridyl]acetamide]: the IC50 lay in the range of 0.0001 to 10 µM. In the case of `COc1ncc(NC(=O)Cc2cc(F)c(-c3cnc4[nH]cc(F)c4c3)cc2F)cc1C(F)(F)F` [Compound P-0051, 2-[2,5-difluoro-4-(3-fluoro-1H-pyrrolo[2,3-b]pyridin-5-yl)phenyl]-N-[6-methoxy-5-(trifluoromethyl)-3-pyridyl]acetamide] it was 0.0001 to 10 µM. In the case of `COc1ncc(NC(=O)Cc2ccc(-c3cnc(Nc4cn[nH]c4)nc3)cc2)cc1C(F)(F)F` [Compound P-0025, N-[6-methoxy-5-(trifluoromethyl)-3-pyridyl]-2-[4-[2-(1H-pyrazol-4-ylamino)pyrimidin-5-yl]phenyl]acetamide] it was 0.0001 to 10 µM. Regarding `Cn1cc(Nc2ncc(-c3ccc(CC(=O)Nc4ccnc(C(F)(F)F)c4)c(F)c3)cn2)cn1` [Compound P-0083, 2-[2-fluoro-4-[2-[(1-methylpyrazol-4-yl)amino]pyrimidin-5-yl]phenyl]-N-[2-(trifluoromethyl)-4-pyridyl]acetamide], the IC50 was 0.0001 to 10 µM. In the case of `O=C(Cc1ccc(-c2cnc(Nc3cnn(C(F)F)c3)nc2)c(F)c1)Nc1cc(C(F)(F)F)ccn1` [Compound P-0024, 2-[4-[2-[[1-(difluoromethyl)pyrazol-4-yl]amino]pyrimidin-5-yl]-3-fluoro-phenyl]-N-[4-(trifluoromethyl)-2-pyridyl]acetamide], the concentration for half-maximal inhibition (IC50) fell in the range of 0.0001 to 10 µM.

Turning to `COc1ncc(NC(=O)Cc2ccc(-c3cnc4[nH]cc(C(=O)C5CC5)c4c3)cc2F)cc1C(F)(F)F` [Compound P-0036, 2-[4-[3-(cyclopropanecarbonyl)-1H-pyrrolo[2,3-b]pyridin-5-yl]-2-fluoro-phenyl]-N-[6-methoxy-5-(trifluoromethyl)-3-pyridyl]acetamide], the IC50 lay in the range of 0.0001 to 10 µM.

Turning to `Cc1ncc(NC(=O)Cc2ccc(-c3cnc4[nH]c(Cl)cc4c3)cc2F)cc1C(F)(F)F` [Compound P-0067, 2-[4-(2-chloro-1H-pyrrolo[2,3-b]pyridin-5-yl)-2-fluoro-phenyl]-N-[6-methyl-5-(trifluoromethyl)-3-pyridyl]acetamide], the half-maximal inhibitory concentration (IC50) lay within 0.0001 to 10 µM.

With `Cc1ncc(NC(=O)Cc2ccc(-c3cnc4[nH]cc(Cl)c4n3)cc2F)cc1C(F)(F)F` [Compound P-0059, 2-[4-(7-chloro-5H-pyrrolo[2,3-b]pyrazin-2-yl)-2-fluoro-phenyl]-N-[6-methyl-5-(trifluoromethyl)-3-pyridyl]acetamide], the half-inhibitory concentration (IC50) was 0.0001 to 10 µM.

Consider `COc1nn(C[C@H](C)O)cc1Nc1ncc(-c2ccc(CC(=O)Nc3cncc(C(F)(F)F)c3)c(F)c2)cn1` [Compound P-0050, 2-[2-fluoro-4-[2-[[1-[(2S)-2-hydroxypropyl]-3-methoxy-pyrazol-4-yl]amino]pyrimidin-5-yl]phenyl]-N-[5-(trifluoromethyl)-3-pyridyl]acetamide], for which the IC50 is 0.0001 to 10 µM. In the case of `O=C(Cc1ccc(-c2cnc3[nH]nc(C4CC4)c3c2)cc1F)Nc1cncc(C(F)(F)F)c1` [Compound P-0072, 2-[4-(3-cyclopropyl-1H-pyrazolo[3,4-b]pyridin-5-yl)-2-fluoro-phenyl]-N-[5-(trifluoromethyl)-3-pyridyl]acetamide] it was 0.0001 to 10 µM; in that of `CC(=O)c1c[nH]c2ncc(-c3ccc(CC(=O)Nc4cnc(C)c(C(F)(F)F)c4)c(F)c3)cc12` [Compound P-0063, 2-[4-(3-acetyl-1H-pyrrolo[2,3-b]pyridin-5-yl)-2-fluoro-phenyl]-N-[6-methyl-5-(trifluoromethyl)-3-pyridyl]acetamide], 0.0001 to 10 µM; in that of `Cc1ncc(NC(=O)Cc2ccc(-c3cnc4[nH]cc(F)c4c3)cc2F)cc1C(F)(F)F` [Compound P-0062, 2-[2-fluoro-4-(3-fluoro-1H-pyrrolo[2,3-b]pyridin-5-yl)phenyl]-N-[6-methyl-5-(trifluoromethyl)-3-pyridyl]acetamide], 0.0001 to 10 µM.
